Measured values reported in PMC9686928, “10-mer and 9-mer WALK Peptides with Both Antibacterial and Anti-Inflammatory Activities” (Antibiotics, 2022).
Where no end group is shown, it is not given here.

Assays:
[1] = test system: Bacillus subtilis ATCC 6633; assay: microbe, parasite or virus in culture; format: cell-based; conditions: Gram-positive; broth microdilution, Luria-Bertani broth, 1–64 μg/mL two-fold serial dilutions; lowest concentration that completely inhibited growth; triplicate
Protocol: (§1) The antimicrobial activity of each peptide was assessed against four strains, including two Gram-positive (Bacillus subtilis ATCC 6633 and Staphylococcus aureus ATCC 6538p) and two Gram-negative bacteria (Escherichia coli ATCC 25922 and Shigella dysentariae ATCC 9752) cultured in Luria-Bertani broth media. Antibacterial susceptibility was determined as the MIC value, which was measured using the standard broth microdilution method as described previously. […] Two conventional antibiotics, ampicillin and kanamycin, were used as controls to confirm antibiotic susceptibility. The tests were performed in triplicate, and the MIC values that were reproduced twice or thrice in the three independent measurements were employed to calculate the GM value.

[2] = test system: Escherichia coli ATCC 25922; assay: microbe, parasite or virus in culture; format: cell-based; conditions: Gram-negative; broth microdilution, Luria-Bertani broth, 1–64 μg/mL two-fold serial dilutions; triplicate
Protocol: as §1

[3] = test system: Shigella dysentariae ATCC 9752; assay: microbe, parasite or virus in culture; format: cell-based; conditions: Gram-negative; broth microdilution, Luria-Bertani broth, 1–64 μg/mL two-fold serial dilutions; triplicate
Protocol: as §1

[4] = test system: Staphylococcus aureus ATCC 6538p; assay: microbe, parasite or virus in culture; format: cell-based; conditions: Gram-positive; broth microdilution, Luria-Bertani broth, 1–64 μg/mL two-fold serial dilutions; triplicate
Protocol: as §1

[5] = test system: two Gram-positive and two Gram-negative bacterial strains; assay: Antimicrobial assay, MICs over the four strains (geometric mean); format: cell-based, B. subtilis, S. aureus, E. coli, S. dysentariae; conditions: for GM, geometric mean of MICs: geometric mean of the MICs against the four strains
Protocol: as §1

human red blood cells = conditions: for MHC, minimal hemolytic concentration: lowest concentration showing 5% or more hemolysis, 1–64 μg/mL, A550, relative to 0.2% Triton X-100, triplicate
Protocol: Briefly, suspensions of human red blood cells (10% v/v in PBS) were treated for 1 h with various concentrations (1–64 μg/mL, two-fold serial dilutions) of peptides, followed by measurement of the absorbance of the supernatant at 550 nm. The relative attenuation was determined as the percentage of hemolysis compared to that of the blood suspension treated with 0.2% Triton X-100. The tests were performed in triplicate, and the average values of three independent measurements were recorded.

RAW264.7 cells = conditions: at the concentrations tested, 16 h
Protocol: (§4) Macrophage cells seeded in 96-well cell culture plates at a density of 3 × 10^4 cells/well were incubated for 24 h, followed by treatment with LPS or individual WALK peptides and subsequent incubation for 16 h. Cell viability was then assessed by the conventional MTT assay. Briefly, the medium in each well was replaced with 100 μL of RPMI medium containing MTT (500 μg/mL). After 2 h of incubation, the medium was discarded and the insoluble formazan in each well was dissolved in 100 μL of DMSO with shaking. The absorbance of the solution at 550 nm was measured using a spectrophotometric microplate reader to determine the percentage of cell viability relative to that of control cells.

[6] = test system: LPS-stimulated J774A.1 cells; assay: Nitric oxide (NO) production, Griess reaction assay; format: cell-based, murine; conditions: LPS 100 ng/mL 16 h; for NO inhibition at 8 μM: peptide 8 μM; for inhibitory effect against NO production: peptides 8, 4 and 2 μM, pretreatment 5 min, nitrite by Griess
Protocol: NT, non-treated; LPS, lipopolysaccharides. (A) Cytotoxicity was assessed using the MTT assay. […] (B) Anti-inflammatory potential deduced by NO assay.
(§2) The macrophage cells were seeded (3 × 10^4 cells/well) and incubated in 96-well plates for 24 h, followed by pretreatments with the WALK peptides at designated concentrations for 5 min and subsequent stimulation with 100 ng/mL of LPS for 16 h. The nitrite concentration in the culture medium was determined using the Griess reaction assay. Briefly, the culture supernatant (100 μL) was mixed with an equal volume of Griess reagent (1% sulfanilamide, 0.1% N-1-naphthyl ethylenediamine) and incubated for 5 min. The absorbance of the resulting chromophoric azo-derivative molecules was measured at 550 nm using a microplate reader with a fresh culture medium as a blank. The amount of nitrite in each sample was determined using a standard curve generated using a range of dilutions of sodium nitrite solutions.

J774A.1 cells = conditions: peptides 8, 4 and 2 μM, 16 h
Protocol: (A) Cytotoxicity was assessed using the MTT assay. The cells were treated with lipopolysaccharides (LPS, 100 ng/mL) or peptides (8–2 μM, two-fold serial dilutions) for 16 h, followed by estimating the cell viability as the percentage of surviving cells compared to that of the control cells.
as §4

[7] = test system: LPS-stimulated RAW264.7 cells; assay: Nitric oxide (NO) production, Griess reaction assay; format: cell-based, murine; conditions: LPS 100 ng/mL 16 h, compared with omiganan and WALK155.03 (8 μM)
Protocol: as §2

[8] = test system: iNOS, COX-2 and pro-IL-1β in LPS-stimulated RAW264.7 cells; assay: Immunoblot analysis of pro-inflammatory mediators; format: cell-based, murine; conditions: peptide pretreatment 5 min, LPS 100 ng/mL 16 h, Western blot
Protocol: (§3) Figure 5 Anti-inflammatory effects of WALK244.04 peptide in Raw264.7 cells. The cells were pretreated with the peptide at indicated concentrations for 5 min, followed by stimulation with LPS (100 ng/mL) to induce inflammatory responses. (A) iNOS, COX-2, and pro-IL-1β expression levels were estimated by Western blot analysis after 16 h of LPS treatment. (B) The mRNA expression of IL-1β, IL-6, and TNF-α was determined by quantitative real-time PCR upon 3 h of stimulation with LPS. […] (C) The phosphorylation of STAT1 and TBK1 was examined by Western blot analysis at different time points after the LPS treatment.
as §3, with “Figure 6” for “Figure 5”, “of WALK243.04” for “of WALK244.04”, “PCR after” for “PCR upon”, “was analyzed” for “was examined”, “after” for “after the”
The cells were lysed using a RIPA buffer (iNtRON) containing protease and phosphatase inhibitor cocktails. The cell lysates were resolved using 10% SDS-PAGE and transferred to nitrocellulose membranes, which were blocked for 1 h at room temperature (approximately 23 °C) using phosphate-buffered saline with 0.01% Tween-20 (PBST, Merck Korea, Seoul, Korea) containing 10% fat-free dried milk. The blocked membranes were then incubated overnight with primary antibodies at 4 °C, followed by further incubation with horseradish peroxidase-conjugated secondary antibodies for 1 h at room temperature. The membranes were developed using the enhanced chemiluminescence (ECL) detection kit (Advansta, San Jose, CA, USA) and visualized using a luminescent image analyzer (Amersham imager 680, Cytiva Korea, Incheon, Korea).

[9] = test system: IL-1β, IL-6 and TNF-α mRNA in LPS-stimulated RAW264.7 cells; assay: Quantitative real-time PCR of pro-inflammatory cytokines; format: cell-based, murine; conditions: LPS 100 ng/mL 3 h, real-time qPCR
Protocol: as §3
Figure 6 Anti-inflammatory effects of WALK243.04 peptide in Raw264.7 cells. […] (B) The mRNA expression of IL-1β, IL-6, and TNF-α was determined by quantitative real-time PCR after 3 h of stimulation with LPS. […] (C) The phosphorylation of STAT1 and TBK1 was analyzed by Western blot analysis at different time points after LPS treatment.
The cells were stimulated with LPS (100 ng/mL) for 3 h in the presence or absence of peptide samples, and the total RNA was extracted using a HiGene™ Total RNA Prep Kit (BIOFACT, Daejeon, Korea). cDNA was synthesized from 500 ng of total RNA using a SuperiorScript III cDNA synthesis kit (Enzynomics, Daejeon, Korea). […] The resulting 2^−ΔΔCt value for each group was used to calculate the relative expression ratio of the detected mRNA.

[10] = test system: phosphorylation of STAT1 and TBK1 in LPS-stimulated RAW264.7 cells; assay: Immunoblot analysis of TRIF-dependent signaling; format: cell-based, murine; conditions: Western blot
Protocol: as §3
TRIF-dependent signaling, which is triggered by association with internalized TLR4 upon stimulation by LPS, is known to be mediated by the phosphorylation of the downstream kinase TANK binding kinase-1 (TBK-1) to produce type-I interferons. These interferons induce the expression of downstream target genes via the phosphorylation of the transcription factor signal transducer and the activator of transcription-1 (STAT-1).
The cells were lysed using a RIPA buffer (iNtRON) containing protease and phosphatase inhibitor cocktails. […]

[11] = human red blood cells 10% v/v in PBS, 1 h

For LKWLKWLLK-NH2 [WALK243.06], the “MIC, B. subtilis” value [1] was 2 µg/mL, the “MIC, E. coli” value [2] was 2 µg/mL and the “MIC, S. dysentariae” value [3] was 8 µg/mL. For the same substance, the “MIC, S. aureus” value [4] was 2 µg/mL, the “GM, geometric mean of MICs” value [5] was 2.8 µg/mL and the “MHC, minimal hemolytic concentration” value (human red blood cells; [11]) was 32 µg/mL. The “cytotoxicity (MTT assay)” value (RAW264.7 cells) was “did not demonstrate significant cytotoxicity”.

KLLKWLKKWL-NH2 [WALK244.05] was tested, and the “MIC, B. subtilis” value [1] was 2 µg/mL, the “MIC, E. coli” value [2] was 2 µg/mL and the “MIC, S. dysentariae” value [3] was 4 µg/mL. The “MIC, S. aureus” value [4] was 2 µg/mL, the “GM, geometric mean of MICs” value [5] was 2.4 µg/mL and the “NO inhibition at 8 μM” value [6] was “near-complete NO inhibition”. For the same substance, the “inhibitory effect against NO production” value [6] was “dose-dependent inhibitory effect”, the “MHC, minimal hemolytic concentration” value (human red blood cells; [11]) was 32 µg/mL and the “cytotoxicity (MTT assay)” value (J774A.1 cells) was “no significant cytotoxicity”.

With KLLKWLLKW-NH2 [WALK243.05] the “MIC, B. subtilis” value [1] was 2 µg/mL, the “MIC, E. coli” value [2] was 2 µg/mL and the “MIC, S. dysentariae” value [3] was 16 µg/mL. For the same substance, the “MIC, S. aureus” value [4] was 2 µg/mL, the “GM, geometric mean of MICs” value [5] was 3.4 µg/mL and the “MHC, minimal hemolytic concentration” value (human red blood cells; [11]) was 64 µg/mL. The “cytotoxicity (MTT assay)” value (RAW264.7 cells) was “did not demonstrate significant cytotoxicity”.

KWLLKWLKKL-NH2 [WALK244.02] was tested, and the “MIC, B. subtilis” value [1] was 2 µg/mL, the “MIC, E. coli” value [2] was 2 µg/mL and the “MIC, S. dysentariae” value [3] was 8 µg/mL. For the same substance, the “MIC, S. aureus” value [4] was 2 µg/mL, the “GM, geometric mean of MICs” value [5] was 2.8 µg/mL and the “inhibitory effect against NO production” value [6] was “dose-dependent inhibitory effect”. For the same substance, the “MHC, minimal hemolytic concentration” value (human red blood cells; [11]) was 32 µg/mL and the “cytotoxicity (MTT assay)” value (J774A.1 cells) was “no significant cytotoxicity”.

For LLKWLKKWL-NH2 [WALK243.04], the “MIC, B. subtilis” value [1] was 4 µg/mL, the “MIC, E. coli” value [2] was 4 µg/mL and the “MIC, S. dysentariae” value [3] was 4 µg/mL. For the same substance, the “MIC, S. aureus” value [4] was 4 µg/mL, the “GM, geometric mean of MICs” value [5] was 4.0 µg/mL and the NO inhibitory activity [7] was “superior NO inhibition compared to other positive controls”. For the same substance, the “COX-2 and pro-IL-1β expression” value [8] was “less potent or weaker than those of WALK244.04”, the iNOS expression [8] was “less potent or weaker than those of WALK244.04” and the “MHC, minimal hemolytic concentration” value (human red blood cells; [11]) was 64 µg/mL. The “cytotoxicity (MTT assay)” value (RAW264.7 cells) was “did not demonstrate significant cytotoxicity”.

With LKKWLKWLLK-NH2 [WALK244.07] the “MIC, B. subtilis” value [1] was 2 µg/mL, the “MIC, E. coli” value [2] was 2 µg/mL and the “MIC, S. dysentariae” value [3] was 8 µg/mL. For the same substance, the “MIC, S. aureus” value [4] was 2 µg/mL, the “GM, geometric mean of MICs” value [5] was 2.8 µg/mL and the “inhibitory effect against NO production” value [6] was “dose-dependent inhibitory effect”. The “MHC, minimal hemolytic concentration” value (human red blood cells; [11]) was 32 µg/mL and the “cytotoxicity (MTT assay)” value (J774A.1 cells) was “no significant cytotoxicity”.

For KWLLKWLLK-NH2 [WALK243.02], the “MIC, B. subtilis” value [1] was 4 µg/mL, the “MIC, E. coli” value [2] was 4 µg/mL and the “MIC, S. dysentariae” value [3] was 16 µg/mL. The “MIC, S. aureus” value [4] was 4 µg/mL, the “GM, geometric mean of MICs” value [5] was 5.7 µg/mL and the percentage hemolysis (human red blood cells; at 64 μg/mL, human red blood cells 10% v/v in PBS, 1 h, relative to 0.2% Triton X-100, average of three measurements) was 6.7%. For the same substance, the “MHC, minimal hemolytic concentration” value (human red blood cells; [11]) was 64 µg/mL and the “cytotoxicity (MTT assay)” value (RAW264.7 cells) was “did not demonstrate significant cytotoxicity”.

With LLKWLKKWLK-NH2 [WALK244.04] the “MIC, B. subtilis” value [1] was 4 µg/mL, the “MIC, E. coli” value [2] was 4 µg/mL and the “MIC, S. dysentariae” value [3] was 8 µg/mL. The “MIC, S. aureus” value [4] was 4 µg/mL, the “MIC values against the strains tested” value ([5]; against both Gram-positive and Gram-negative bacterial strains, summary) was “approximately 4 μg/mL” and the “GM, geometric mean of MICs” value [5] was 4.8 µg/mL. The “NO inhibition at 8 μM” value [6] was “near-complete NO inhibition”, the “inhibitory effect against NO production” value [6] was “dose-dependent inhibitory effect” and the NO inhibitory activity [7] was “most potent NO inhibitory activity”. The “COX-2 and pro-IL-1β expression” value [8] was “downregulation”, the iNOS expression [8] was “substantial downregulation” and the “mRNA expression of IL-1β, IL-6 and TNF-α” value [9] was “effectively suppressed”. The TBK-1 phosphorylation ([10]; after 1 h of LPS treatment) was “attenuated”, the STAT-1 phosphorylation ([10]; after 4 h of LPS treatment) was “strong inhibition” and the hemolytic activity (human red blood cells; at concentrations under 64 μg/mL, human erythrocytes) was “no significant hemolytic activity”. For the same substance, the “MHC, minimal hemolytic concentration” value (human red blood cells; [11]) was 64 µg/mL and the “cytotoxicity (MTT assay)” value (J774A.1 cells) was “no significant cytotoxicity”.
